How the values were obtained:
human 5HT1A receptor [1] = molecular target: T1, human 5HT1A receptor (Homo sapiens, UniProt P08908); test: 5-HT1A receptor binding assay ([3H] 8-OH-DPAT displacement); settings: displacement of [3H] 8-OH-DPAT (1.5 nM) in CHO cells stably transfected with the human 5HT1A receptor
T1 construct: expressed in transfected cells; host or cells: CHO cells, stably transfected
T1 sequence (P08908 1-422): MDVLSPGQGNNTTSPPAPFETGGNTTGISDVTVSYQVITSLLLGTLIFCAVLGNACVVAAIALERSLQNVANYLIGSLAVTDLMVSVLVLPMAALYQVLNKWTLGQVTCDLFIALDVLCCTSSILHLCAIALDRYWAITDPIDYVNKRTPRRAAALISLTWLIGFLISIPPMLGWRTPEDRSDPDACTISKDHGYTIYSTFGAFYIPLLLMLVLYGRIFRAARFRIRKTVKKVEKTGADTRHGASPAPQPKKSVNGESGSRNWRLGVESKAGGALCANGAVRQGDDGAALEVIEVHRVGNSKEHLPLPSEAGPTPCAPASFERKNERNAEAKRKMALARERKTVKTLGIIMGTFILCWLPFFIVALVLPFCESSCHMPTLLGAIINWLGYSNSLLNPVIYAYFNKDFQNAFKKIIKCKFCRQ
Procedure: 5-HT1A Receptor Binding Assay
High affinity for the serotonin 5-HT1A receptor was established by testing the claimed compound's ability to displace [^3H] 8-OH-DPAT binding in CHO cells stably transfected with the human 5HT1A receptor. Stably transfected CHO cells are grown in DMEM containing 10% heat inactivated FBS and non-essential amino acids. Cells are scraped off the plate, transferred to centrifuge tubes, and washed twice by centrifugation (2000 rpm for 10 min., 4°C) in buffer (50 mM Tris pH 7.5). The resulting pellets are aliquoted and placed at -80°C. On the day of assay, the cells are thawed on ice and resuspended in buffer. The binding assay is performed in a 96 well microtiter plate in a total volume of […]. Non-specific binding is determined in the presence of […] 5-HT, final ligand concentration is 1.5 nM. Following a 30 minute incubation at room temperature, the reaction is terminated by the addition of ice cold buffer and rapid filtration through a GF/B filter presoaked for 30 minutes in 0.5% PEI. Compounds are initially tested in a single point assay to determine percent inhibition at […], and Ki values are determined for the active compounds.

human 5HT1A receptor [2] = molecular target: T1, human 5HT1A receptor; test: 5-HT1A receptor intrinsic activity assay (cAMP, RIA); type: cell-based; settings: for cAMP Emax: agonist activity: reversal of forskolin-stimulated cAMP in CHO cells with human 5-HT1A receptor, % printed only; for IC50: antagonist, reversal of agonist induced activity, compounds with Emax = 0 %, preincubated 20 minutes before agonist and forskolin
Procedure: 5-HT1A Receptor Intrinsic Activity Assay
The intrinsic activity of compounds of the present invention was established by testing the claimed compounds ability to reverse the stimulation of cyclic adenosinemonophosphate (cAMP) in CHO cells stably transfected with the human 5-HT1A receptor. Stably transfected CHO cells were grown in DMEM containing 10% heat inactivated FBS and non-essential amino acids. The cells are plated at a density of […] per well in a 24 well plate and incubated for 2 days in a CO2 incubator. On the second day, the media is replaced with 0.5 mL treatment buffer (DMEM + 25 mM HEPES, 5 mM theophylline, […] pargyline) and incubated for 10 minutes at 37°C. Wells are treated with forskolin ([…]) followed immediately by the test compound ([…] for initial screen) and incubated for an additional 10 minutes at 37°C. The reaction is terminated by removal of the media and addition of 0.5 mL ice cold assay buffer (supplied in the RIA kit). Plates are stored at -20°C prior to assessment of cAMP formation by RIA. EC50 values are determined for the active test compounds. Compounds shown to have no agonist activities (Emax = 0 %) are further analyzed for their ability to reverse agonist induced activity. In separate experiments, 6 concentrations of antagonist are preincubated for 20 minutes prior to the addition of agonist and forskolin. Cells are harvested as described above. The cAMP kit is supplied by Amersham and the RIA is performed as per kit instructions, and calculations of IC50 performed by GraphPad Prism.

Structure (SMILES): COc1nsnc1N1CCN(CC(Cc2ccccc2)N(C)C(=O)c2ccccc2)CC1 (centres unmarked) [Compound 9, N-{1-Benzyl-2-[4-(4-methoxy-[1,2,5]thiadiazol-3-yl)piperazin-1-yl]ethyl]-N-methylbenzamide]
- Ki (human 5HT1A receptor [1]): 9.87 nM

Structure (SMILES): O=C(N[C@@H](Cc1ccccc1)CN1CCN(c2nsnc2Cl)CC1)C1CCCCC1.O=C(O)/C=C/C(=O)O [Compound 4, Cyclohexanecarboxylic acid {(1S)-1-benzyl-2-(4-(4-chloro[1,2,5}thiadiazol-3-yl)piperazin-1-yl]ethyl}amide fumarate]
- Ki (human 5HT1A receptor [1]): 0.84 nM
- cAMP Emax (human 5HT1A receptor [2]): 93.00%
- EC50 (human 5HT1A receptor [2]; agonist, reversal of forskolin-stimulated cAMP in transfected CHO cells): 4.61 nM

Structure (SMILES): CN(C(=O)C1CCCCC1)[C@H](Cc1ccccc1)CN1CCN(c2nsnc2Cl)CC1 [Compound 7]
- Ki (human 5HT1A receptor [1]): 4.55 nM
- cAMP Emax (human 5HT1A receptor [2]): 0.00%
- IC50 (human 5HT1A receptor [2]): 49.3 nM

Structure (SMILES): COc1nsnc1N1CCN(C[C@@H](Cc2ccccc2)N(C)C(=O)C2CCCCC2)CC1 [Compound 8, Cyclohexanecarboxylic acid {(1R)-1-benzyl-2-[4-(4-methoxy-[1,2,5]thiadiazol-3-yl)-piperazine-1-yl]ethyl}methyl amide]
- Ki (human 5HT1A receptor [1]): 1.55 nM
- cAMP Emax (human 5HT1A receptor [2]): 0.00%
- IC50 (human 5HT1A receptor [2]): 72.7 nM

Structure (SMILES): O=C(N[C@@H](Cc1ccccc1)CN1CCN(c2nsnc2Cl)CC1)c1ccncc1 [Compound 5]
- Ki (human 5HT1A receptor [1]): 425 nM

Structure (SMILES): COc1nsnc1N1CCN(C[C@@H](Cc2cccnc2)NC(=O)C2(C)CCCCC2)CC1 [Compound 11, 1-Methylcyclohexanecarboxylic acid {(1R)-2-[4-(4-methoxy-[1,2,5]thiadiazol-3-yl)-piperazin-1-yl]-1-pyridin-3-ylmethylethyl} amide]
- Ki (human 5HT1A receptor [1]): 3.04 nM
- cAMP Emax (human 5HT1A receptor [2]): 0.000%
- IC50 (human 5HT1A receptor [2]): 113 nM

— patent EP1161424B1, “NEW DIAZOLE DERIVATIVES AS SEROTONERGIC AGENTS” (Wyeth, priority 1999, dated 2000)
